# From patent US20250197460A1, “USE OF LACTOBACILLUS PARACASEI GM-080 AND PEPTIDES THEREOF FOR ANTIMICROBIA” (GenMont Biotech Incorporation, priority 2023, published 2025)
# Experiments:
# [1] = system: Streptococcus pyogenes NZ131; assay: Antimicrobial peptide co-culture with Streptococcus pyogenes (OD); assay type: cell-based
# Description: (§1) The powder was diluted with DMSO to different concentrations. Subsequently, after being co-cultured with pathogenic streptococcus for different time periods, it was confirmed whether the antimicrobial peptides were the antimicrobial peptide of GM-080 capable of inhibiting Streptococcus pyogenes NZ131 by OD6oonm or in a dish coating manner simultaneously.
# [2] = system: Streptococcus pyogenes NZ131; assay: Antimicrobial peptide co-culture, viable bacteria in a dish coating manner; assay type: cell-based; settings: 1-200 mg/mL
# Description: as §1
Sequence,"inhibition of Streptococcus pyogenes in a co-culture manner ([1]; 10-200 mg/mL, from 2-3 hours of co-culture, FIG. 8A)","inhibition of growth of Streptococcus pyogenes in a dish coating manner (viable bacteria) ([2]; co-cultured for 2 or 5 hours, FIG. 9A)","inhibition of growth of Streptococcus pyogenes in a co-culture manner ([1]; 1-200 mg/mL, FIG. 8B)",inhibition of growth of Streptococcus pyogenes in a dish coating manner ([2]; FIG. 9B)
"MELLNEKELAHVIGGKRKCPKTPFDNTPGAWFAHLILGC (GM-080; listed as Lactobacillus paracasei) [AMP-01026, antimicrobial peptide of Lactobacillus paracasei GM-080, synthesized]",good inhibition effect,significantly inhibit the growth,,
"MKQFDEQKMVNMSDEELLEFIGGDSIRDVSPTFNKIRRWFDGLFK (GM-080; listed as Lactobacillus paracasei) [AMP-01240, second predicted antimicrobial peptide segment of GM-080, synthesized]",,,not capable of inhibiting the growth,not capable of inhibiting the growth
